Assays:
Candida krusei [1] = experiment: in vitro broth dilution MFC against Candida krusei; assay type: cell-based; conditions: 16 strains
Procedure: (§1) The in vitro antifungal activity tests were performed via conventional broth dilution methods in Sabouraud dextrose broth ("SDB") medium and Eagles Minimum Essential Medium ("EMEM") against a large number of fungi. Minimum Inhibitory Concentrations ("MICs") were measured after 24, 48 and 72 hour tests. In many cases, Minimum Fungicidial Concentrations ("MFCS") were measured after 48 and 72 hours.

Candida glabrata [2] = experiment: in vitro broth dilution MIC against Candida glabrata; assay type: cell-based; conditions: 9 strains
Procedure: as §1

Aspergillus [3] = experiment: in vitro broth dilution MFC against Aspergillus; assay type: cell-based, Aspergillus flavus, fumigatus and other species; conditions: 37 strains
Procedure: as §1

Dermatophytes [4] = experiment: in vitro broth dilution MFC against Dermatophytes; assay type: cell-based, T. rubrum, T. mentagrophytes, and T. tonsurans; conditions: 6 strains
Procedure: as §1

[5] = tested on: Candida tropicalis & stellatoidea; conditions: 5 strains
Procedure: as §1

Candida glabrata [6] = experiment: in vitro broth dilution MFC against Candida glabrata; assay type: cell-based; conditions: 9 strains
Procedure: as §1

Cryptococcus neoformans [7] = experiment: in vitro broth dilution MFC against Cryptococcus neoformans; assay type: cell-based; conditions: 3 strains
Procedure: as §1

Candida albicans [8] = conditions: 26 strains
Procedure: as §1

[9] = tested on: Candida tropicalis & stellatoidea; experiment: in vitro broth dilution MIC against Candida tropicalis & stellatoidea; assay type: cell-based; conditions: 5 strains
Procedure: as §1

Aspergillus [10] = experiment: in vitro broth dilution MIC against Aspergillus; assay type: cell-based, Aspergillus flavus, fumigatus and other species; conditions: 37 strains
Procedure: as §1

Cryptococcus neoformans [11] = experiment: in vitro broth dilution MIC against Cryptococcus neoformans; assay type: cell-based; conditions: 3 strains
Procedure: as §1

Candida krusei [12] = experiment: in vitro broth dilution MIC against Candida krusei; assay type: cell-based; conditions: 16 strains
Procedure: as §1

Dermatophytes [13] = experiment: in vitro broth dilution MIC against Dermatophytes; assay type: cell-based, T. rubrum, T. mentagrophytes, and T. tonsurans; conditions: 6 strains
Candida albicans [14] = experiment: in vitro broth dilution MIC against Candida albicans; assay type: cell-based; conditions: 26 strains
Procedure: as §1

[15] = tested on: cytochrome P-450 liver drug metabolizing enzymes; experiment: induction of liver drug metabolizing enzymes in an in vivo rat model; conditions: oral administration
[16] = serum levels, half life and tissue distribution after oral dosing; assay type: in vivo, mice, rats, dogs and monkeys

Structure (SMILES): CC[C@@H]([C@@H](C)O)n1ncn(-c2ccc(N3CCN(c4ccc(OC[C@@H]5CO[C@@](Cn6cncn6)(c6ccc(F)cc6F)C5)cc4)CC3)cc2)c1=O
- PERCENTAGE OF STRAINS WITH MFCs ≤1 MCG/ML (Candida krusei [1]): 100 PERCENTAGE
- PERCENTAGE OF STRAINS WITH MICs ≤1 MCG/ML (Candida glabrata [2]): 33 PERCENTAGE
- PERCENTAGE OF STRAINS WITH MFCs ≤1 MCG/ML (Aspergillus [3]): 89 PERCENTAGE
- PERCENTAGE OF STRAINS WITH MFCs ≤1 MCG/ML (Dermatophytes [4]): 100 PERCENTAGE

Structure (SMILES): CC[C@H]([C@H](C)O)n1ncn(-c2ccc(N3CCN(c4ccc(OC[C@@H]5CO[C@@](Cn6cncn6)(c6ccc(F)cc6F)C5)cc4)CC3)cc2)c1=O
- PERCENTAGE OF STRAINS WITH MFCs ≤1 MCG/ML [5]: 100 PERCENTAGE
- PERCENTAGE OF STRAINS WITH MFCs ≤1 MCG/ML (Candida glabrata [6]): 22 PERCENTAGE
- PERCENTAGE OF STRAINS WITH MFCs ≤1 MCG/ML (Cryptococcus neoformans [7]): 100 PERCENTAGE
- PERCENTAGE OF STRAINS WITH MFCs ≤1 MCG/ML (Candida krusei [1]): 88 PERCENTAGE
- PERCENTAGE OF STRAINS WITH MICs ≤1 MCG/ML (Candida glabrata [2]): 22 PERCENTAGE
- PERCENTAGE OF STRAINS WITH MFCs ≤1 MCG/ML (Candida albicans [8]): 100 PERCENTAGE
- PERCENTAGE OF STRAINS WITH MICs ≤1 MCG/ML [9]: 100 PERCENTAGE
- PERCENTAGE OF STRAINS WITH MICs ≤1 MCG/ML (Aspergillus [10]): 100 PERCENTAGE
- PERCENTAGE OF STRAINS WITH MFCs ≤1 MCG/ML (Aspergillus [3]): 50 PERCENTAGE
- PERCENTAGE OF STRAINS WITH MICs ≤1 MCG/ML (Cryptococcus neoformans [11]): 100 PERCENTAGE
- PERCENTAGE OF STRAINS WITH MFCs ≤1 MCG/ML (Dermatophytes [4]): 67 PERCENTAGE
- PERCENTAGE OF STRAINS WITH MICs ≤1 MCG/ML (Candida krusei [12]): 100 PERCENTAGE
- PERCENTAGE OF STRAINS WITH MICs ≤1 MCG/ML (Dermatophytes [13]): 100 PERCENTAGE
- PERCENTAGE OF STRAINS WITH MICs ≤1 MCG/ML (Candida albicans [14]): 100 PERCENTAGE

Structure (SMILES): CC[C@@H]([C@H](C)O)n1ncn(-c2ccc(N3CCN(c4ccc(OC[C@@H]5CO[C@@](Cn6cncn6)(c6ccc(F)cc6F)C5)cc4)CC3)cc2)c1=O [drawing 20]
- induction of cytochrome P-450 liver drug metabolizing enzymes [15]: not inducers
- serum half lives ([16]; O.D. dosing): very long serum half lives
- tissue distribution ([16]; O.D. dosing): good tissue distribution
- serum levels compared to azoles of similiar structure ([16]; oral dosing, methyl cellulose formulation, mice, rats, dogs and monkeys): consistently higher serum levels

Structure (SMILES): CC[C@@H]([C@H](C)O)n1ncn(-c2ccc(N3CCN(c4ccc(OC[C@@H]5CO[C@@](Cn6cncn6)(c6ccc(F)cc6F)C5)cc4)CC3)cc2)c1=O [drawing 22]
- PERCENTAGE OF STRAINS WITH MFCs ≤1 MCG/ML (Candida krusei [1]): 94 PERCENTAGE
- PERCENTAGE OF STRAINS WITH MFCs ≤1 MCG/ML (Aspergillus [3]): 62 PERCENTAGE
- PERCENTAGE OF STRAINS WITH MFCs ≤1 MCG/ML (Dermatophytes [4]): 83 PERCENTAGE

Source: patent US5714490A, “Tetrahydrofuran antifungals” (Schering Corporation, priority 1995, dated 1998)
